In the NIST ThermoML archive (doi:10.1021/je200140m):
± gives the expanded uncertainty stated by the source. One block for each compound: values may come before it.

What was measured:
[1] = Liquid, Closed cell (Static) method
[2] = refractive index (Na D-line) (dimensionless); details: 101.33 kPa, Liquid, Standard Abbe refractometry

- vapor or sublimation pressure ([1]; 308.11 K): 114.7 ± 0.9 kPa
- vapor or sublimation pressure ([1]; 358.92 K): 550.4 ± 1.4 kPa
- refractive index ([2]; 293.1 K): 1.34359 ± 0.00076
SMILES: COC=O [methyl methanoate]

- vapor or sublimation pressure ([1]; 358.93 K): 221.4 ± 1 kPa
- refractive index ([2]; 293.1 K): 1.32853 ± 0.00073
SMILES: CO [methanol]

- vapor or sublimation pressure ([1]; 308.12 K): 30.8 ± 0.8 kPa
- vapor or sublimation pressure ([1]; 335.66 K): 83 ± 1 kPa
- refractive index ([2]; 298.1 K): 1.37514 ± 0.00073
SMILES: CCCCCC [hexane]

- vapor or sublimation pressure ([1]; 308.1 K): 788 ± 2 kPa
- vapor or sublimation pressure ([1]; 308.13 K): 785.2 ± 1.8 kPa
- vapor or sublimation pressure ([1]; 335.65 K): 1539.6 ± 2.6 kPa
SMILES: COC [dimethyl ether]
